How the values were obtained:
[1] = pH stability of ICM (ICG5 in buffers pH 2 to 10 heated at 100° C. for 24 hours); assay type: physicochemical; settings: for Degree of coloring / Purity: 4% (w/v), 100° C. for 24 hours
Experimental: ICG5, prepared from soluble starch by the method in Experiment 11 and purified to give a purity of 100% by the method in Experiment 1, was used as material. An aqueous ICG5 solution with a concentration of 5% (w/v) was prepared by dissolving ICG5 in deionized water. Then, 8 ml each of the resulting solution was pored into a glass tube, sealed closely, and then heated at 120° C. for 30 to 90 min. After cooling the solution, the degree of coloring of the solution was measured. Further, the purity of ICG5 in the solution was measured by HPLC. The degree of coloring was defined as an absorbance at 480 nm using a 1 cm-cell.
ICG5, used in Experiment 15, was dissolved in various buffers to make into nine kinds of aqueous solutions containing 4% (w/v) of ICG5, adjusted to pH 2 to 10, as shown in Table 14. Eight milliliters of each solution was put in a glass tube, sealed and then heated at 100° C. for 24 hours. After cooling the solution, the degree of coloring and the purity of ICG5 of each solution were measured in the same manner in Experiment 15.

[2] = Amino-carbonyl reaction with glycine; assay type: physicochemical; settings: 5% (w/v) saccharide + 1% (w/v) glycine, pH 7.0, 120° C., blank subtracted
Experimental: ICG5, used in Experiment 15 and commercially available super high-grade glycine were dissolved in deionized water, and then admixed with phosphate buffer to make into an aqueous ICG5 solution containing 5% (w/v) of ICG5 and 1% (w/v) glycine, adjusted to pH 7.0. As a control, an aqueous α-cyclodextrin (α-CD) solution containing α-CD and glycine was prepared in the same manner using α-CD in place of ICG5. Four milliliters each of the solution was put in a glass tube, sealed and then heated at 120° C. for 30, 60, or 90 min. After cooling the solutions in ambient temperature, the degrees of coloring of the solutions were measured to estimate the degree of amino-carbonyl reaction. As a blank test, a solution containing glycine only was heated in the same manner. The degree of coloring was defined as an absorbance at 480 nm using a 1 cm-cell after subtracting the absorbance of the blank test.

[3] = Amino-carbonyl reaction with polypeptone; assay type: physicochemical; settings: with 5% (w/v) polypeptone, 120° C., blank subtracted
Experimental: ICG5 used in Experiment 15 and commercially available polypeptone, commercialized by Nihon Pharmaceutical Co., Ltd., Tokyo, Japan, were dissolved in deionized water to make into an aqueous solution containing […] and 5% (w/v) of polypeptone. As a control, an aqueous solution containing α-CD and polypeptone was prepared in the same manner using α-CD in place of ICG5. Four milliliters each of the solution was put in a glass tube, sealed and then heated at 120° C. for 30, 60, or 90 min. After cooling the solutions in ambient temperature, the degrees of coloring of the solutions were measured to estimate the degree of amino-carbonyl reaction. As a blank test, a solution containing polypeptone only was heated in the same manner. The degree of coloring was defined as an absorbance at 480 nm using a 1 cm-cell after subtracting the absorbance of the blank test.

mice = assay: Acute toxicity test, oral, mice; assay type: in vivo
From the text: By using mice, ICG5 used in Experiment 15 was orally administrated to the mice for its acute toxicity test. […] Though not so accurate, the value of LD50 of ICG5 was 5 g/kg-mouse weight or higher.

salivary α-amylase = target: T1, salivary α-amylase (Homo sapiens, UniProt P0DUB6)
T1 sequence (P0DUB6 16-511): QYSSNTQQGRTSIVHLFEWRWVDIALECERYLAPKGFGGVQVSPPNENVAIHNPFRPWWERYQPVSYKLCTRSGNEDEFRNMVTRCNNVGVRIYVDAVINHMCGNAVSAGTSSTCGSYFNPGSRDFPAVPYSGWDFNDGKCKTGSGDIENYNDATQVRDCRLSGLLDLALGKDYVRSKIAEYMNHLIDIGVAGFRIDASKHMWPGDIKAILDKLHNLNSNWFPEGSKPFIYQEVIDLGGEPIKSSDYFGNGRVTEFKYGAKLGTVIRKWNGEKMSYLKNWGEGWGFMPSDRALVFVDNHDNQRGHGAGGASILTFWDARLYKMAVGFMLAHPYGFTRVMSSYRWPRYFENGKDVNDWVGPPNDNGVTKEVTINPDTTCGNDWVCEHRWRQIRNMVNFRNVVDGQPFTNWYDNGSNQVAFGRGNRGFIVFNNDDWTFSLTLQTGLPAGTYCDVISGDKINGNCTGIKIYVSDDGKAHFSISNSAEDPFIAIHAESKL

## OCC1OC2OC3C(CO)OC(OC4C(CO)OC(OC5C(CO)OC(OCC6OC(OC1C(O)C2O)C(O)C(O)C6O)C(O)C5O)C(O)C4O)C(O)C3O [ICG5, cyclo{→6)-α-D-glucopyranosyl-(1→4)-α-D-glucopyranosyl-(1→4)-α-D-glucopyranosyl-(1→4)-.α-D-glucopyranosyl-(1→4)α-D-glucopyranosyl-(1→}]
[1]; pH 2, 100° C. for 24 hours
  Hydrolysis: completely hydrolyzed
[1]; pH 2.0, Acetate buffer
  Degree of coloring: 0.00 A480 nm
  Purity: 0%
[1]; pH 3, 100° C. for 24 hours
  Hydrolysis: ≥ 50
[1]; pH 3.0, Acetate buffer
  Degree of coloring: 0.00 A480 nm
  Purity: 34.9%
[1]; pH 4, 100° C. for 24 hours
  Hydrolysis: slightly hydrolyzed
[1]; pH 4.0, Acetate buffer
  Degree of coloring: 0.00 A480 nm
  Purity: 89.9%
[1]; pH 5.0, Acetate buffer
  Degree of coloring: 0.00 A480 nm
  Purity: 99.4%
[1]; pH 6.0, Acetate buffer
  Degree of coloring: 0.00 A480 nm
  Purity: 100%
[1]; pH 7.0, Borate buffer
  Degree of coloring: 0.00 A480 nm
  Purity: 100%
[1]; pH 8.0, Ammonium buffer
  Degree of coloring: 0.00 A480 nm
  Purity: 100%
[1]; pH 9.0, Ammonium buffer
  Degree of coloring: 0.01 A480 nm
  Purity: 100%
[1]; pH 10.0, Ammonium buffer
  Degree of coloring: 0.01 A480 nm
  Purity: 99.6%
[1]; pH range of 5 to 10, 100° C. for 24 hours
  Hydrolysis: substantially not hydrolyzed
[2]; heating time 0 min
  Degree of coloring: 0.00 A480 nm
[2]; heating time 30 min
  Degree of coloring: 0.00 A480 nm
[2]; heating time 60 min
  Degree of coloring: 0.00 A480 nm
[2]; heating time 90 min
  Degree of coloring: 0.00 A480 nm
[3]; heating time 0 min
  Degree of coloring: 0.00 A480 nm
[3]; heating time 30 min
  Degree of coloring: 0.02 A480 nm
[3]; heating time 60 min
  Degree of coloring: 0.02 A480 nm
[3]; heating time 90 min
  Degree of coloring: 0.02 A480 nm
mice; oral, highest possible dose
  Mortality: no mouse died
mice; orally administrated, though not so accurate
  LD50: ≥ 5 g/kg-mouse weight
Salivary α-amylase
  Digestion: 0%
Pancreas α-amylase
  Digestion: 0%

Reference: patent US8633005B2, “Isocyclomaltooligosaccharide(s), isocyclomaltooligosaccharide-forming enzyme, their preparation and uses” (Hayashibara Co., Ltd., priority 2004, dated 2014)
